Like-named read-outs stand apart in the source and are kept apart here.
How the values were obtained:
primary human T-cells [1] = tested on: primary human T-cells
MV-3 cells = experiment: T-cell - TCB - MV3 killing assay (MCSP-TCB, RFP object count by Incucyte); type: cell-based, human; conditions: 5 d; for Emax: read-out: MSCP TCB killing MV-3 cells 5 d Emax; for EC50: primary human T-cells + MCSP-TCB, MV-3 RFP cells, read-out: MSCP TCB killing MV-3 cells 5 d EC50
primary human T-cells [2] = experiment: Proliferation assay after 5 days (CellTiter-Glo, CD3 stimulation; PBS counter screen); type: cell-based; conditions: CD3 stimulation; for Emax / Emax proliferation (% activation): 5 days, normalized to reference compound A1 as stimulator control = 100%, DMSO neutral control; for Emax: read-out: Emax proliferation (% activation); for EC50: primary human T-cells, CellTiter-Glo after 5 days, EC50 of fitted sigmoidal curve, read-out: Tcell Proliferation CD3 EC50
Method in brief: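 After compound addition to medium-only plates, cells are cultured 5 days, equilibrated to room temperature, mixed with an equal volume of CellTiter-Glo 2.0 and rocked 15 min before luminescence is read. Signal reflects ATP content, taken as proportional to cell number.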

[3] = Homo sapiens, MV-3, 120 h, normalized: MCSP-TCB only = neutral control, 20 μM reference compound A1 = 100%

| Compound | EC50 (primary human T-cells [1]) | Emax (MV-3 cells; [3]) | EC50 (MV-3 cells) | Emax (primary human T-cells [2]; Homo sapiens, T-cell, 120 h) | EC50 (primary human T-cells [2]; Homo sapiens, T-cell, 120 h) | EC50 (MV-3 cells; Homo sapiens, MV-3, 120 h) | EC50 (primary human T-cells [2]) | MSCP TCB killing MV-3 cells 5 d Emax (MV-3 cells; normalized: MCSP-TCB only = neutral control, 20 μM reference compound A1 = 100%) | Emax proliferation (% activation) (primary human T-cells [2]) |
| --- | --- | --- | --- | --- | --- | --- | --- | --- | --- |
| CCc1cn(-c2cc3c(cc2F)S(=O)(=O)C[C@H](N)C(=O)N3Cc2ccc(Cl)cc2)nn1 [Example 3, (3R)-3-amino-5-[(4-chlorophenyl)methyl]-7-(4-ethyltriazol-1-yl)-8-fluoro-1,1-dioxo-2,3-dihydro-1λ^6,5-benzothiazepin-4-one] | 12000 nM | 100% | 1550 nM | 68% | 4300 nM |  |  |  |  |
| CCc1noc(-c2cc3c(cc2F)S(=O)(=O)C[C@H](N)C(=O)N3Cc2ccc(Cl)cc2)n1 [Example 41, (3R)-3-Amino-5-[(4-chlorophenyl)methyl]-7-(3-ethyl-1,2,4-oxadiazol-5-yl)-8-fluoro-1,1-dioxo-2,3-dihydro-1λ^6,5-benzothiazepin-4-one] |  | 92% | 230 nM | 61% | 9360 nM |  |  |  |  |
| CC(C)(C)c1noc(-c2cc3c(cc2F)S(=O)(=O)C[C@H](N)C(=O)N3Cc2ccc(Cl)cc2)n1 [Example 43, (3R)-3-Amino-7-(3-tert-butyl-1,2,4-oxadiazol-5-yl)-5-[(4-chlorophenyl)methyl]-8-fluoro-1,1-dioxo-2,3-dihydro-1λ^6,5-benzothiazepin-4-one] | 2320 nM | 102% |  | 143% | 265 nM | 40 nM |  |  |  |
| N[C@H]1CS(=O)(=O)c2cc(F)c(-c3nc(CC(F)(F)F)no3)cc2N(Cc2ccc(Cl)cc2)C1=O [Example 49, (3R)-3-amino-5-[(4-chlorophenyl)methyl]-8-fluoro-1,1-dioxo-7-[3-(2,2,2-trifluoroethyl)-1,2,4-oxadiazol-5-yl]-2,3-dihydro-1λ^6,5-benzothiazepin-4-one] | 2180 nM | 100% | 170 nM | 112% | 585 nM |  |  |  |  |
| CC(C)(C)c1nnc(-c2cc3c(cc2F)SC[C@H](N)C(=O)N3Cc2ccc(OC(F)(F)F)cc2)o1 [Example 54, (3R)-3-amino-7-(5-tert-butyl-1,3,4-oxadiazol-2-yl)-8-fluoro-5-[[4-(trifluoromethoxy)phenyl]methyl]-2,3-dihydro-1,5-benzothiazepin-4-one] |  | 123% |  | 116% | 1120 nM | 300 nM |  |  |  |
| N[C@H]1CS(=O)(=O)c2cc(F)c(-c3nnc(CC(F)(F)F)o3)cc2N(Cc2ccc(OC(F)(F)F)cc2)C1=O [Example 56, (3R)-3-Amino-8-fluoro-1,1-dioxo-7-[5-(2,2,2-trifluoroethyl)-1,3,4-oxadiazol-2-yl]-5-[[4-(trifluoromethoxy)phenyl]methyl]-2,3-dihydro-1λ^6,5-benzothiazepin-4-one] |  | 123% | 110 nM | 136% | 414 nM |  |  |  |  |
| CCc1nnc(-c2cc3c(cc2F)S(=O)(=O)C[C@H](N)C(=O)N3Cc2ccc(Cl)cc2)o1 [Example 72, (3R)-3-Amino-5-[(4-chlorophenyl)methyl]-7-(5-ethyl-1,3,4-oxadiazol-2-yl)-8-fluoro-1,1-dioxo-2,3-dihydro-1λ^6,5-benzothiazepin-4-one] | 3240 nM | 115% | 310 nM | 124% | 1140 nM |  |  |  |  |
| Cc1cc2c(cc1-c1nnc(C3CN(C)CC(F)(F)C3)o1)N(Cc1ccc(Cl)cc1)C(=O)[C@@H](N)CS2(=O)=O (stereo partly drawn) [Example 524, (3R)-3-amino-5-[(4-chlorophenyl)methyl]-7-[5-(5,5-difluoro-1-methyl-3-piperidyl)-1,3,4-oxadiazol-2-yl]-8-methyl-1,1-dioxo-2,3-dihydro-1λ^6,5-benzothiazepin-4-one] | > 10000 nM |  |  | 80% | 4270 nM |  |  |  |  |
| CCc1ncn(-c2cc3c(cc2F)S(=O)(=O)C[C@H](N)C(=O)N3Cc2ccc(Cl)cc2)n1 [Example 525, (3R)-3-amino-5-[(4-chlorophenyl)methyl]-7-(3-ethyl-1,2,4-triazol-1-yl)-8-fluoro-1,1-dioxo-2,3-dihydro-1λ^6,5-benzothiazepin-4-one] | 3510 nM |  |  | 67% | 935 nM |  |  |  |  |
| (3R)-3-amino-5-[(4-chlorophenyl)methyl]-7-[5-(2,2-difluoromorpholin-4-yl)-1,3,4-oxadiazol-2-yl]-1,1-dioxo-2,3-dihydro-1λ^6,5-benzothiazepin-4-one [Example 413] | 1080 nM |  |  |  |  |  | 193 nM |  | 160 % activation |

Continued by falling EC50 (primary human T-cells [1]), values first:

| EC50 (primary human T-cells [1]) | Compound | Emax (MV-3 cells; [3]) | EC50 (MV-3 cells) | Emax (primary human T-cells [2]; Homo sapiens, T-cell, 120 h) | EC50 (primary human T-cells [2]; Homo sapiens, T-cell, 120 h) | EC50 (MV-3 cells; Homo sapiens, MV-3, 120 h) | EC50 (primary human T-cells [2]) | MSCP TCB killing MV-3 cells 5 d Emax (MV-3 cells; normalized: MCSP-TCB only = neutral control, 20 μM reference compound A1 = 100%) | Emax proliferation (% activation) (primary human T-cells [2]) |
| --- | --- | --- | --- | --- | --- | --- | --- | --- | --- |
| 1250 nM | (3R)-3-amino-7-[5-[4-(chloromethyl)-4-(hydroxymethyl)cyclohexyl]-1,3,4-oxadiazol-2-yl]-5-[(4-chlorophenyl)methyl]-8-fluoro-1,1-dioxo-2,3-dihydro-1λ^6.5-benzothiazepin-4-one [Example 482] |  |  |  |  |  | 786 nM |  | 106 % activation |
| 967 nM | CN1CCC(n2nnc(-c3cc4c(cc3F)S(=O)(=O)C[C@H](N)C(=O)N4Cc3ccc(Cl)cc3)n2)C1 (stereo partly drawn) [Example 12, (3R)-3-amino-5-[(4-chlorophenyl)methyl]-8-fluoro-7-[2-(1-methylpyrrolidin-3-yl)tetrazol-5-yl]-1,1-dioxo-2,3-dihydro-1λ^6,5-benzothiazepin-4-one] | 96% | 910 nM | 84% | 1020 nM |  |  |  |  |
| 793 nM | N[C@H]1C[S+]([O-])c2cc(F)c(-c3noc(N4CCOC5(CC5)C4)n3)cc2N(Cc2ccc(Cl)cc2)C1=O (single isomer, unassigned; epimer a) [Example 211] | 86% |  |  |  | 45 nM | 326 nM |  |  |
| 686 nM | CC(C)(CO)c1noc(-c2cc3c(cc2F)S(=O)(=O)C[C@H](N)C(=O)N3Cc2ccc(Cl)cc2)n1 (racemic) [Example 46] | 83% | 1040 nM | 94% | 1820 nM |  |  |  |  |
| 594 nM | CC(C)(C)c1nnc(-c2cc3c(cc2F)[S+]([O-])C[C@H](N)C(=O)N3Cc2ccc(Cl)cc2)o1 (single isomer, unassigned; epimer b) [Example 187] |  | 1640 nM |  |  |  | 1540 nM | 57% | 92 % activation |
| 472 nM | CC(C)(C)n1nnc(-c2ccc3c(c2)N(Cc2ccc(Cl)cc2)C(=O)[C@@H](N)CS3(=O)=O)n1 [Example 36] | 81% | 390 nM | 86% | 404 nM |  |  |  |  |
| 292 nM | CC(C)(C)c1cn(-c2cc3c(cc2F)S(=O)(=O)C[C@H](N)C(=O)N3Cc2ccc(Cl)cc2)cn1 [Example 527] |  |  |  |  |  | 1280 nM |  | 69 % activation |
| 238 nM | NC(c1nnc(-c2cc3c(cc2F)S(=O)(=O)C[C@H](N)C(=O)N3Cc2ccc(Cl)cc2)o1)C(F)(F)F (stereo partly drawn) [Example 122, (3R)-3-amino-7-[5-(1-amino-2,2,2-trifluoro-ethyl)-1,3,4-oxadiazol-2-yl]-5-[(4-chlorophenyl)methyl]-8-fluoro-1,1-dioxo-2,3-dihydro-1λ^6,5-benzothiazepin-4-one] | 86% | 510 nM | 92% | 782 nM |  |  |  |  |
| 93.8 nM | CC(C)(C)n1nnc(-c2cc3c(cc2F)S(=O)(=O)C[C@H](N)C(=O)N3Cc2ccc(Cl)cc2)n1 [Example 8, (3R)-3-amino-7-(2-tert-butyltetrazol-5-yl)-5-[(4-chlorophenyl)methyl]-8-fluoro-1,1-dioxo-2,3-dihydro-1λ^6,5-benzothiazepin-4-one] | 96% |  | 130% | 84.5 nM | 70 nM |  |  |  |
| 67.1 nM | CC(C)(C)c1nnc(-c2cc3c(cc2F)S(=O)(=O)C[C@H](N)C(=O)N3Cc2ccc(Cl)cc2)o1 [Example 63, (3R)-3-amino-7-(5-tert-butyl-1,3,4-oxadiazol-2-yl)-5-[(4-chlorophenyl)methyl]-8-fluoro-1,1-dioxo-2,3-dihydro-1λ^6,5-benzothiazepin-4-one] | 93% |  | 141% | 48.8 nM | 20 nM |  |  |  |
| 55.2 nM | N[C@H]1CS(=O)(=O)c2cc(F)c(-c3nnc(C4CCCCC4(F)F)o3)cc2N(Cc2ccc(Cl)cc2)C1=O (stereo partly drawn) [Example 74, (3R)-3-Amino-5-[(4-chlorophenyl)methyl]-7-[5-(2,2-difluorocyclohexyl)-1,3,4-oxadiazol-2-yl]-8-fluoro-1,1-dioxo-2,3-dihydro-1λ^6,5-benzothiazepin-4-one] | 97% | 20 nM | 180% | 48.7 nM |  |  |  |  |
| 34.1 nM | N[C@H]1CS(=O)(=O)c2cc(F)c(-c3nnc(C4CCCC(F)(F)C4)o3)cc2N(Cc2ccc(Cl)cc2)C1=O (stereo partly drawn) [Example 91, (3R)-3-amino-5-[(4-chlorophenyl)methyl]-7-[5-(3,3-difluorocyclohexyl)-1,3,4-oxadiazol-2-yl]-8-fluoro-1,1-dioxo-2,3-dihydro-1λ^6,5-benzothiazepin-4-one] | 93% | 20 nM | 139% | 125 nM |  |  |  |  |
